The values below come from ChEMBL document CHEMBL1909046, “DrugMatrix in vitro pharmacology data”.

Molecules are shown by their SMILES.

5-hydroxytryptamine receptor 1B, sequence (P28564 whole entry): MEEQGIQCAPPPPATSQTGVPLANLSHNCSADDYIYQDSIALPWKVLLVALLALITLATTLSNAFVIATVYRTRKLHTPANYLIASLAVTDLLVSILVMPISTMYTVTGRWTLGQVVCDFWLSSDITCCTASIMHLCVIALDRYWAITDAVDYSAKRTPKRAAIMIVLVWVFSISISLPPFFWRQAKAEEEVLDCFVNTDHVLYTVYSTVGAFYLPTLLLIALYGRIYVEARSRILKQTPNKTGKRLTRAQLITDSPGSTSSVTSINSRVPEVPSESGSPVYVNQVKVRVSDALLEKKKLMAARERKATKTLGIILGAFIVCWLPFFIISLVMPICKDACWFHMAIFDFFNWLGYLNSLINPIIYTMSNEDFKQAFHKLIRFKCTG
Sodium-dependent dopamine transporter, sequence (Q01959 whole entry): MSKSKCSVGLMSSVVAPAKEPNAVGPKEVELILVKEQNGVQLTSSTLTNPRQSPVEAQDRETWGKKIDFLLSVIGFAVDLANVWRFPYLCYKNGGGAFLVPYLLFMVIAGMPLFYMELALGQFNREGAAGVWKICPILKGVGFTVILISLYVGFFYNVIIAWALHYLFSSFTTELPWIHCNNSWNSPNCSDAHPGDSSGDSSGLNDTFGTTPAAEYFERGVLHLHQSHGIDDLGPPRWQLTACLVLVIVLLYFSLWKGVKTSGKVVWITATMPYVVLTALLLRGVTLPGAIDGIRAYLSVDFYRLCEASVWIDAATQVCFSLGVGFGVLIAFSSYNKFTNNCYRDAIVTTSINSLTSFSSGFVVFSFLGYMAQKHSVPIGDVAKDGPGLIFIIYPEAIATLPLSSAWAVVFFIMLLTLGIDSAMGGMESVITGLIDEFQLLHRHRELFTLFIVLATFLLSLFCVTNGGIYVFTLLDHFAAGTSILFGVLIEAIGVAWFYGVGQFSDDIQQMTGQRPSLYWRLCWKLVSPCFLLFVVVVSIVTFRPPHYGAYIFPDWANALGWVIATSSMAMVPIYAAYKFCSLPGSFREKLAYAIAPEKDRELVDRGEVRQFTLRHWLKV
Insulin receptor, sequence (P15127 27-759 limits assumed): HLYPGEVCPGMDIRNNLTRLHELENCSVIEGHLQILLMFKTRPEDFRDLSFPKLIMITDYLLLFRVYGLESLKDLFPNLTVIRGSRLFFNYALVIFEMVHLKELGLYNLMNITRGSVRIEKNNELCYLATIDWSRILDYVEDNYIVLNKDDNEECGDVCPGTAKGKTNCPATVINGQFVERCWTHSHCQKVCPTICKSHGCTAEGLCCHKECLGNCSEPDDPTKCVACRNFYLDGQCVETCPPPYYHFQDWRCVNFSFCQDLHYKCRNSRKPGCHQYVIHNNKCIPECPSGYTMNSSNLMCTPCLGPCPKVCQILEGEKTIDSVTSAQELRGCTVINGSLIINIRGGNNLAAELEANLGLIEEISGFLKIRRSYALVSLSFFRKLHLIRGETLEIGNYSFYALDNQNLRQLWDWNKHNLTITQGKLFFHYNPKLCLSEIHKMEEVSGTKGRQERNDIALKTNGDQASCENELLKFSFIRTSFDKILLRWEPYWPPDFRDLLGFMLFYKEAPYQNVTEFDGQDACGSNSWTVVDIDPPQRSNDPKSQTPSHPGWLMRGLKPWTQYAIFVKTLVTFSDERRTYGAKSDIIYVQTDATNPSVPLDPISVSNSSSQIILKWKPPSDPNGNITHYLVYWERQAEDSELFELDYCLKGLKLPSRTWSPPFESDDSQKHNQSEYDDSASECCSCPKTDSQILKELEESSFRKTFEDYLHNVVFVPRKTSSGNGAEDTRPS
Insulin receptor, sequence (P15127 764-1383 limits assumed): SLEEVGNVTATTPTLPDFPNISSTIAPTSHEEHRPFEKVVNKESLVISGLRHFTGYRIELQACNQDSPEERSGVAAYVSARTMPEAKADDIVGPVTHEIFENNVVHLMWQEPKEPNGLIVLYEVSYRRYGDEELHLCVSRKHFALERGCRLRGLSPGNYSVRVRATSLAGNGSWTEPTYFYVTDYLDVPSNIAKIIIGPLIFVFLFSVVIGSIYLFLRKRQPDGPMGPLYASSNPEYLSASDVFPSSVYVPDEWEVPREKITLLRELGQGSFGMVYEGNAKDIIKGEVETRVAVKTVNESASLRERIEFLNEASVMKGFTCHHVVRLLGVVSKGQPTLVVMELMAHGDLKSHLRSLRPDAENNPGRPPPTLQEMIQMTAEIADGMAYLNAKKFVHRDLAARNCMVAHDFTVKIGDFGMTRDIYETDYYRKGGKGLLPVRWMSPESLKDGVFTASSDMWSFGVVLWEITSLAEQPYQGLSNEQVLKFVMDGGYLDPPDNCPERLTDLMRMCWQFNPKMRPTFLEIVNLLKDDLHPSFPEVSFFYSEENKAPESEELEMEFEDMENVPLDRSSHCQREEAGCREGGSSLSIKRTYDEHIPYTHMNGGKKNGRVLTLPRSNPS
Tyrosine-protein kinase Fyn, sequence (P06241 whole entry): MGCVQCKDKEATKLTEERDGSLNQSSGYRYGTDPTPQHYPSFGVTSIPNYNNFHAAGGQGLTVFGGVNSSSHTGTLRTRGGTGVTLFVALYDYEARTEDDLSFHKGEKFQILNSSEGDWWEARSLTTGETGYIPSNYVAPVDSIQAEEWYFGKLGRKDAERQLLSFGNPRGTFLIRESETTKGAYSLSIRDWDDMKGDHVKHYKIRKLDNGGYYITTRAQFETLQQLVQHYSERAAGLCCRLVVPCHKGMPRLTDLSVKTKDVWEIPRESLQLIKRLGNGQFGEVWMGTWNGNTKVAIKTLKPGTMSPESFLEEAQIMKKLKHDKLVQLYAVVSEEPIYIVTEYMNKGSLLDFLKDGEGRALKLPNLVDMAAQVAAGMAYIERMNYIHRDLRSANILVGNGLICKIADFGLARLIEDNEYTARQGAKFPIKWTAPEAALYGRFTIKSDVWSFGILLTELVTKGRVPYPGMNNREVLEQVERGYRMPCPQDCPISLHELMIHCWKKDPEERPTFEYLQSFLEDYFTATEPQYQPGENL
Receptor tyrosine-protein kinase erbB-2, sequence (P04626 whole entry): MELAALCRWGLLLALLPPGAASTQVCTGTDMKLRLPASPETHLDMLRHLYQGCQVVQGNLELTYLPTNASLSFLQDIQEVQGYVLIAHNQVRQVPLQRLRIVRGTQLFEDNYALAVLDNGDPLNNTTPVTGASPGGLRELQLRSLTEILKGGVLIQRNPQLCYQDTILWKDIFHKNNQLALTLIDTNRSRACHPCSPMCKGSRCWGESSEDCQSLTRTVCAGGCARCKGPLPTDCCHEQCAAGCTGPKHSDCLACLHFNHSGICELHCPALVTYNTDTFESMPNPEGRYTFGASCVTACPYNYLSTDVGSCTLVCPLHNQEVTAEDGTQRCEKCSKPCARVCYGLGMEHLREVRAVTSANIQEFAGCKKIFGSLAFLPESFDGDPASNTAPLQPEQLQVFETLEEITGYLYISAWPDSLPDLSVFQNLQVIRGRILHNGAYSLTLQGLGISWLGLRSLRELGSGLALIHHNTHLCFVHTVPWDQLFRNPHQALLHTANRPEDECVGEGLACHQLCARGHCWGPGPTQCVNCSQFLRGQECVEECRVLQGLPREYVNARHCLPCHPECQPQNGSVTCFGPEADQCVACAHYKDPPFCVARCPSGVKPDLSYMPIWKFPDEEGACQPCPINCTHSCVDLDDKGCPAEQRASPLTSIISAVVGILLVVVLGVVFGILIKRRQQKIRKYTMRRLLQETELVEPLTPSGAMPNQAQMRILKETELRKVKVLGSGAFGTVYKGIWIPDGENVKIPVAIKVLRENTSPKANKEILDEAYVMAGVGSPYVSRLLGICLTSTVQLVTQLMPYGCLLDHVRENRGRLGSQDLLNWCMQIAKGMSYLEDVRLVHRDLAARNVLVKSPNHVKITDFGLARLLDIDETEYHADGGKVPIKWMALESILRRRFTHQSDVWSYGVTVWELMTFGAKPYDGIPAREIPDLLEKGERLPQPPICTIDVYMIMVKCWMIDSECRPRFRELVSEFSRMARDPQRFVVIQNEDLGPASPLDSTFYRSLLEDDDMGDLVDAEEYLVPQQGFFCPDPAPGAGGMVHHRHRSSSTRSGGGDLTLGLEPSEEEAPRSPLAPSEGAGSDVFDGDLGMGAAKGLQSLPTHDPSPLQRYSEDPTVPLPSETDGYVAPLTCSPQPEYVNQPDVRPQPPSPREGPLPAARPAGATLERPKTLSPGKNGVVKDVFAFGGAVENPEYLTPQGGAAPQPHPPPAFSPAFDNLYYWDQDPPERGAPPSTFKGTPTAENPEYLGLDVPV

The first experiment addresses Tyrosine-protein kinase Fyn (Homo sapiens, UniProt P06241). Briefly: biochemical. In kind it is cell-based, Insect cells. The conditions noted are these: insect cells.
Consider `NNC(=O)c1ccncc1` [ISONIAZID], for which the IC50 entry was “Not Active”.
On the same count and under the same terms, the result for `COC(=O)C1=C(C)NC(C)=C(C(=O)OC)C1c1ccccc1[N+](=O)[O-]` [NIFEDIPINE] reads “Not Active”.
For the compound `NC(=O)c1ccccc1O` [SALICYLAMIDE], the IC50 entry is listed as “Not Active”.

Tested on in the next experiment: not listed separately
Briefly: DRUGMATRIX: GABAA, Flunitrazepam, Central radioligand binding (ligand: [3H] Flunitrazepam). Type of experiment: cell membranes, Rattus norvegicus, Wistar, Brain, Membrane. The conditions noted are these: Not Active = under 50% inhibition at 10 µM.
As to `NNC(=O)c1ccncc1` [ISONIAZID], the IC50 result is “Not Active” and the Ki entry is on record as “Not Active”.
For the compound `COC(=O)C1=C(C)NC(C)=C(C(=O)OC)C1c1ccccc1[N+](=O)[O-]` [NIFEDIPINE], the IC50 result is recorded as “Not Active” and the Ki result is recorded as “Not Active”.
As to `NC(=O)c1ccccc1O` [SALICYLAMIDE], the IC50 result is “Not Active” and the Ki result is recorded as “Not Active”.

The next experiment has as its target Receptor tyrosine-protein kinase erbB-2 (Homo sapiens, UniProt P04626). The experiment in a line: biochemical. The conditions noted are these: insect cells. Type of experiment: cell-based, Insect cells.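 Also: inhibition of HER2 kinase enzyme activity, measured with Poly(Glu:Tyr) as the phosphorylation substrate; in other assays of this panel Not Active means under 50% inhibition at 10 µM.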
Take `NNC(=O)c1ccncc1` [ISONIAZID]: the IC50 entry is “Not Active”.
Turning to `COC(=O)C1=C(C)NC(C)=C(C(=O)OC)C1c1ccccc1[N+](=O)[O-]` [NIFEDIPINE], the IC50 result was “Not Active”.
The same measure, in the same setting: the result for `NC(=O)c1ccccc1O` [SALICYLAMIDE] reads “Not Active”.

Another experiment addresses 5-hydroxytryptamine receptor 1B (Rattus norvegicus, UniProt P28564).
Test: not given
Conditions: not given
Type of experiment: cell membranes, Wistar, Cerebral cortex, Membrane.
As for `NNC(=O)c1ccncc1` [ISONIAZID], the IC50 entry was “Not Active”.
Turning to `COC(=O)C1=C(C)NC(C)=C(C(=O)OC)C1c1ccccc1[N+](=O)[O-]` [NIFEDIPINE], the IC50 entry is “Not Active”.
Consider `NC(=O)c1ccccc1O` [SALICYLAMIDE], for which the IC50 entry is reported as “Not Active”.

Another experiment has as its target Sodium-dependent dopamine transporter (Homo sapiens, UniProt Q01959). The experiment in a line: DRUGMATRIX: Dopamine Transporter radioligand binding (ligand: [125I] RTI-55). In kind it is cell membranes, CHO-K1, Membrane. The conditions noted are these: cho-k1; Not Active = under 50% inhibition at 10 µM.
Take `NNC(=O)c1ccncc1` [ISONIAZID]: the IC50 result is “Not Active”.
Consider `COC(=O)C1=C(C)NC(C)=C(C(=O)OC)C1c1ccccc1[N+](=O)[O-]` [NIFEDIPINE], for which the IC50 result is on record as “Not Active”.
With `NC(=O)c1ccccc1O` [SALICYLAMIDE], the IC50 entry was “Not Active”.

In another experiment the target is T1, Neutrophil elastase (Homo sapiens, UniProt P08246).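 Also: inhibition of neutrophil elastase enzyme activity, measured with a p-nitroanilide-linked peptide substrate; in other assays of this panel Not Active means under 50% inhibition at 10 µM.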
T1 sequence (P08246 whole entry): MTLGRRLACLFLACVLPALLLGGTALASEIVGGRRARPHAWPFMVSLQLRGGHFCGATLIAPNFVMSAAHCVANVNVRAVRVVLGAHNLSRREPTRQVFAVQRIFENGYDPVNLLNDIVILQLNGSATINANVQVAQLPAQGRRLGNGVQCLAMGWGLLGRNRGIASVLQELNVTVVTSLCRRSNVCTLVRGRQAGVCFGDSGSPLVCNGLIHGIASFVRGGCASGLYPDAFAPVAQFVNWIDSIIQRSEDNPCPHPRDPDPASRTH
Test: not given
In kind it is tissue-based.
Conditions: not given
As to `NNC(=O)c1ccncc1` [ISONIAZID], the IC50 entry is “Not Active”.
With `COC(=O)C1=C(C)NC(C)=C(C(=O)OC)C1c1ccccc1[N+](=O)[O-]` [NIFEDIPINE], the IC50 result is on record as “Not Active”.
In the case of `NC(=O)c1ccccc1O` [SALICYLAMIDE], the IC50 entry is reported as “Not Active”.

For another experiment, the target named is T2, Muscarinic acetylcholine receptor M5 (Homo sapiens, UniProt P08912). Also: in other assays of this panel Not Active means under 50% inhibition at 10 µM.
T2 sequence (P08912 whole entry): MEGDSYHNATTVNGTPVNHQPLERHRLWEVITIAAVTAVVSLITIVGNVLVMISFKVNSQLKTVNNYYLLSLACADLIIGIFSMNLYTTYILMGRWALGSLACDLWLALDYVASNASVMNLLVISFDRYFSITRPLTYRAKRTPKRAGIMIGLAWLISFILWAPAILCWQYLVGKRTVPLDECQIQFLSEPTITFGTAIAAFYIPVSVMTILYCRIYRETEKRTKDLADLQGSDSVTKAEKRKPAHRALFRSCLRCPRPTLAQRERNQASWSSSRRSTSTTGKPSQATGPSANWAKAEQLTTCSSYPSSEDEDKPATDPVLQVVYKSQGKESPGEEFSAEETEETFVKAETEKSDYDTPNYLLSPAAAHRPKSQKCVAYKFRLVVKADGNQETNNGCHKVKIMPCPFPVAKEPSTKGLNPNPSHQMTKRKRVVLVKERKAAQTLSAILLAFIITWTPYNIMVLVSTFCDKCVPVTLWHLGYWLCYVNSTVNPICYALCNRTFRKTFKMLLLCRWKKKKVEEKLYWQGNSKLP
Test: not given
In kind it is cell membranes, CHO-K1, Membrane. The conditions noted are these: cho-k1.
For `NNC(=O)c1ccncc1` [ISONIAZID], the IC50 entry is recorded as “Not Active”.
Turning to `COC(=O)C1=C(C)NC(C)=C(C(=O)OC)C1c1ccccc1[N+](=O)[O-]` [NIFEDIPINE], the IC50 result was “Not Active”.
Regarding `NC(=O)c1ccccc1O` [SALICYLAMIDE], the IC50 result is on record as “Not Active”.

Tested on in another experiment: not listed separately
Briefly: DRUGMATRIX: Sigma2 radioligand binding (ligand: [3H] Ifenprodil). Type of experiment: cell membranes, Rattus norvegicus, Wistar, Brain, Membrane. The conditions noted are these: Not Active = under 50% inhibition at 10 µM.
As for `NNC(=O)c1ccncc1` [ISONIAZID], the IC50 result was “Not Active” and the Ki result was “Not Active”.
Regarding `COC(=O)C1=C(C)NC(C)=C(C(=O)OC)C1c1ccccc1[N+](=O)[O-]` [NIFEDIPINE], the IC50 entry is reported as “Not Active” and the Ki result is recorded as “Not Active”.
As to `NC(=O)c1ccccc1O` [SALICYLAMIDE], the IC50 result is listed as “Not Active” and the Ki entry is reported as “Not Active”.

In the next experiment the target is Histamine H2 receptor (Homo sapiens, UniProt P25021). Also: in other assays of this panel Not Active means under 50% inhibition at 10 µM.
Histamine H2 receptor, sequence (P25021 whole entry): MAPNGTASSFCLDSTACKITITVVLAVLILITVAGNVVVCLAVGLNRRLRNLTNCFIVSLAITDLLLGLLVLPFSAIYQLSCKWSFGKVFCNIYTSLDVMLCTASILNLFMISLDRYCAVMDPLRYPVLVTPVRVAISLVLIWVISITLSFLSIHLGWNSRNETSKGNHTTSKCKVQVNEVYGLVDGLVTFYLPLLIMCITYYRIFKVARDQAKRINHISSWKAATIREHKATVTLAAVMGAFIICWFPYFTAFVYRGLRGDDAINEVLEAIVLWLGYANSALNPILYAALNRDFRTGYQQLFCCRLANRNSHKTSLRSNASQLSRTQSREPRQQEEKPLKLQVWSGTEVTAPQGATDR
Test: not given
In kind it is cell membranes, CHO-K1, Membrane. The conditions noted are these: cho-k1.
Regarding `NNC(=O)c1ccncc1` [ISONIAZID], the IC50 result is “Not Active”.
Consider `COC(=O)C1=C(C)NC(C)=C(C(=O)OC)C1c1ccccc1[N+](=O)[O-]` [NIFEDIPINE], for which the IC50 entry is listed as “Not Active”.
Same read-out and setting: the entry for `NC(=O)c1ccccc1O` [SALICYLAMIDE] is “Not Active”.

For another experiment, the target named is Melanocortin receptor 5 (Homo sapiens, UniProt P33032). Also: in other assays of this panel Not Active means under 50% inhibition at 10 µM.
Test: not given
The conditions noted are these: hek293. Type of experiment: cell membranes, HEK293, Membrane.
For `NNC(=O)c1ccncc1` [ISONIAZID], the IC50 result was “Not Active”.
`COC(=O)C1=C(C)NC(C)=C(C(=O)OC)C1c1ccccc1[N+](=O)[O-]` [NIFEDIPINE]: the IC50 result is “Not Active”.
Consider `NC(=O)c1ccccc1O` [SALICYLAMIDE], for which the IC50 entry is “Not Active”.

A further experiment concerns the target Insulin receptor (Rattus norvegicus, UniProt P15127). Also: in other assays of this panel Not Active means under 50% inhibition at 10 µM.
Test: not given
In kind it is cell membranes, Wistar, Liver, Membrane.
Conditions: not given
Consider `NNC(=O)c1ccncc1` [ISONIAZID], for which the IC50 entry is “Not Active”.
`COC(=O)C1=C(C)NC(C)=C(C(=O)OC)C1c1ccccc1[N+](=O)[O-]` [NIFEDIPINE]: the IC50 result is given as “Not Active”.
Turning to `NC(=O)c1ccccc1O` [SALICYLAMIDE], the IC50 result was “Not Active”.

Tested on in another experiment: not listed separately
Briefly: DRUGMATRIX: Leukotriene, BLT (LTB4) radioligand binding (ligand: [3H]LTB4). In kind it is cell membranes, Membrane. The conditions noted are these: u-937; Not Active = under 50% inhibition at 10 µM.
For the compound `NNC(=O)c1ccncc1` [ISONIAZID], the IC50 result was “Not Active” and the Ki entry is listed as “Not Active”.
For the compound `COC(=O)C1=C(C)NC(C)=C(C(=O)OC)C1c1ccccc1[N+](=O)[O-]` [NIFEDIPINE], the IC50 entry is given as “Not Active” and the Ki entry is listed as “Not Active”.
`NC(=O)c1ccccc1O` [SALICYLAMIDE]: the IC50 entry is listed as “Not Active” and the Ki result is “Not Active”.

For the next experiment, the target named is T3, Caspase-1 (Homo sapiens, UniProt P29466).
T3 sequence (P29466 whole entry): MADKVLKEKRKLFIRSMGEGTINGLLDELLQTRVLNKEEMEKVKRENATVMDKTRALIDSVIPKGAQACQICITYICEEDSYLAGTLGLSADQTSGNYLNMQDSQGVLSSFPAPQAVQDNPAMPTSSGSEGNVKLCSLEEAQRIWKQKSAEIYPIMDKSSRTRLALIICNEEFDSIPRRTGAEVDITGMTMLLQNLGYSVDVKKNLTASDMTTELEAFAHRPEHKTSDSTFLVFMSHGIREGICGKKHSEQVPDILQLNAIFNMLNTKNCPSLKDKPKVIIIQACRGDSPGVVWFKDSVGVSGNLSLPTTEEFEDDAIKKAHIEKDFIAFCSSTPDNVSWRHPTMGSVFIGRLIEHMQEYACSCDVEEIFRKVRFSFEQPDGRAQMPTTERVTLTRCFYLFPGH
Test: not given
Details: species or system Escherichia coli.
Conditions: not given
For the compound `NNC(=O)c1ccncc1` [ISONIAZID], the IC50 entry was “Not Active”.
On to `COC(=O)C1=C(C)NC(C)=C(C(=O)OC)C1c1ccccc1[N+](=O)[O-]` [NIFEDIPINE], for which the IC50 result was “Not Active”.
Turning to `NC(=O)c1ccccc1O` [SALICYLAMIDE], the IC50 entry was “Not Active”.

In another experiment the target is Melanocortin receptor 3 (Homo sapiens, UniProt P41968). Also: in other assays of this panel Not Active means under 50% inhibition at 10 µM.
Melanocortin receptor 3, sequence (P41968 whole entry): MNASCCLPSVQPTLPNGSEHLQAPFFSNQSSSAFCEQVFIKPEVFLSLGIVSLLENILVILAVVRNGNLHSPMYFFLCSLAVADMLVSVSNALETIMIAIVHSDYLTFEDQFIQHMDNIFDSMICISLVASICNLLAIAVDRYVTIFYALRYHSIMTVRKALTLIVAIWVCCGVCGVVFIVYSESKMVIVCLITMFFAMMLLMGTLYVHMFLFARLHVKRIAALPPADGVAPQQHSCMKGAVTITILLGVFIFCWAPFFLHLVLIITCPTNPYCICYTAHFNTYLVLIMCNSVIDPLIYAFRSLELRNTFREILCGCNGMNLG
Test: not given
The conditions noted are these: hek293. Type of experiment: cell membranes, Membrane.
As to `NNC(=O)c1ccncc1` [ISONIAZID], the IC50 result is recorded as “Not Active”.
As for `COC(=O)C1=C(C)NC(C)=C(C(=O)OC)C1c1ccccc1[N+](=O)[O-]` [NIFEDIPINE], the IC50 result is recorded as “Not Active”.
With `NC(=O)c1ccccc1O` [SALICYLAMIDE], the IC50 result was “Not Active”.

A further experiment addresses T4, Muscarinic acetylcholine receptor M4 (Homo sapiens, UniProt P08173).
T4 sequence (P08173 whole entry): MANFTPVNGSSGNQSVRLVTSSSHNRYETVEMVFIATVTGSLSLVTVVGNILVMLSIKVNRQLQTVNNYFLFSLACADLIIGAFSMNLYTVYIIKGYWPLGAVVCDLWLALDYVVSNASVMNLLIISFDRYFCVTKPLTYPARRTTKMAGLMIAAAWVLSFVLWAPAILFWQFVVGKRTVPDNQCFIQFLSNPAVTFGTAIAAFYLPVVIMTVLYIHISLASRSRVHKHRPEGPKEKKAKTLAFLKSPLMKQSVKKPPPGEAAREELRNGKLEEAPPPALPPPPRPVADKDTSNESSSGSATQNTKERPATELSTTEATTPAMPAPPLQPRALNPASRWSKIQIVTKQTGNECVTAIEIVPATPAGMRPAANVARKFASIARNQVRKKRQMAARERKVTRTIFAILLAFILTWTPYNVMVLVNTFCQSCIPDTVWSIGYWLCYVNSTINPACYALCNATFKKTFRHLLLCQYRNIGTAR
Test: not given
The conditions noted are these: cho-k1. In kind it is cell membranes, CHO-K1, Membrane.
With `NNC(=O)c1ccncc1` [ISONIAZID], the IC50 result is reported as “Not Active”.
Turning to `COC(=O)C1=C(C)NC(C)=C(C(=O)OC)C1c1ccccc1[N+](=O)[O-]` [NIFEDIPINE], the IC50 entry is “Not Active”.
With `NC(=O)c1ccccc1O` [SALICYLAMIDE], the IC50 result is given as “Not Active”.
